Several values for one entry are separate records, joined by “and”; a condition that tells them apart may be missing. Identical values can stand only once.
Molecular target: T1, human TAS2R39 (Homo sapiens, UniProt P59534)
T1 construct: expressed in transfected cells; host or cells: HEK293T-Gα16gust44
T1 sequence (P59534 1-338): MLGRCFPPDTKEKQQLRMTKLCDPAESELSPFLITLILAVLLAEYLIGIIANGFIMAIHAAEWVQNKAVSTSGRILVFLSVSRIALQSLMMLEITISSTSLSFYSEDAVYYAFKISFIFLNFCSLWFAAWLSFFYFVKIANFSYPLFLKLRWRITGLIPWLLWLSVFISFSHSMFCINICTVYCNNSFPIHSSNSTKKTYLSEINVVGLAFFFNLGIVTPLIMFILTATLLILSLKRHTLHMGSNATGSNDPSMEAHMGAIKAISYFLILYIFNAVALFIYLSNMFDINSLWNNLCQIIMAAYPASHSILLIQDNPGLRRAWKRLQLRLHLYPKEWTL
Assay: Calcium imaging assay (FLIPR), HEK293T-Gα16gust44 cells transfected with human TAS2R39
Type: cell-based
Settings: for Δ F/F / Efficacy = maximal amplitude (ΔF/F) / Efficacy (maximal amplitude ΔF/F), individual data points: TAS2R39; for Efficacy = maximal amplitude (ΔF/F) / Efficacy (maximal amplitude ΔF/F), individual data points: bile acids; for Efficacy = maximal amplitude (ΔF/F): mean; for Efficacy (maximal amplitude ΔF/F), individual data points: single replicates; for Activation threshold concentration TAS2R39: lowest concentration with significantly increased fluorescence vs empty vector (p < 0.01)
Description: This set of bile acids was chosen because of their commercial availability in high purities, their diversity within the class of bile acids and their previous detection and quantitation in human blood. Stock solutions were prepared in DMSO.
As basal growth medium for the HEK293T-Gα16gust44 cell line[17],[59] served Dulbecco’s modified eagle medium (DMEM) (Thermo Fisher Scientific, Darmstadt, Germany) supplemented with 10 % fetal bovine serum (Sigma-Aldrich, Steinheim, Germany), 2 mM L-glutamine (Sigma-Aldrich, Steinheim, Germany), 100 units/ml penicillin (Sigma Aldrich, Steinheim, Germany) and 100 µg/ml streptomycin (Sigma Aldrich, Steinheim, Germany). Growth conditions were 37 °C, 5 % CO2 and saturated air-humidity[60].
HEK293T-Gα16gust44 cells were seeded on poly-D-lysine (10 µg/ml) coated 96-well plates to reach a confluence of 40-60 % the next day. For transient transfection 150 ng of plasmid DNA containing the receptor of interest and 0.3 µl lipofectamine 2000 (Thermo Fisher Scientific, Darmstadt, Germany) per well were used and transfection took place according to the manual of lipofectamine 2000. […] The empty vector DNA (mock) was transfected as negative control[14],[41].
Cells were loaded using the calcium-sensitive fluorescent dye Fluo-4-AM (Abcam, Cambridge, Great Britain) in the presence of 2.5 mM probenecid (Sigma-Aldrich, Steinheim, Germany) the day after transfection[13],[41]. 1 h after loading, cells were washed with C1 buffer using a BioTek Cell Washer, incubated in the dark for half an hour and washed again. For automated agonist application and measurement of fluorescence changes, a FLIPR^TETRA device (Molecular Devices, San José, United States) was used. Viability of cells was tested by application of 100 nM Somatostatin 14 (Bachem, Bubendorf, Switzerland)[42].
Measured data were negative control corrected by subtracting the signal of the mock-transfected cells and exported to Microsoft Excel using the FLIPR software ScreenWorks 4.2. In Microsoft Excel software, standardization of maximum fluorescence intensities to the basal fluorescence and normalization to the buffer-only control was done to calculate the relative fluorescence changes (ΔF/F).
Initial screening experiments performed in duplicate wells were confirmed by at least one replication and representative traces were selected for display. All dose-response relationships were determined by three independent experiments (biological replicates) performed in duplicates (technical replicates). Threshold concentrations, defined as lowest substance concentrations leading to statistically significant elevated fluorescence changes in receptor-transfected cells compared with empty vector-transfected cells, were determined using SigmaPlot with Student’s t-test to evaluate statistical significance (p < 0.01).

Row | Efficacy (maximal amplitude ΔF/F), individual data points (listed as GCA) | Compound | Δ F/F (Conc. 0,01 mM) | Δ F/F (Conc. 0,1 mM) | Δ F/F (Conc. 0,03 mM) | Δ F/F (Conc. 0,3 mM) | Δ F/F (Conc. 0,001 mM) | Δ F/F (Conc. 1 mM) | Δ F/F (Conc. 0,003 mM) | Efficacy = maximal amplitude (ΔF/F) | Activation threshold concentration TAS2R39 | Efficacy (maximal amplitude ΔF/F), individual data points (listed as CA) | Efficacy (maximal amplitude ΔF/F), individual data points (listed as TCA)
1 | 0.1116 and 0.125 and 0.1542 | C[C@H](CCC(=O)NCC(=O)O)[C@H]1CC[C@H]2[C@@H]3[C@H](O)C[C@@H]4C[C@H](O)CC[C@]4(C)[C@H]3C[C@H](O)[C@]12C [Glycocholic Acid, glycocholic acid] | 0.001299 | 0.005941 | 0.007895 | 0.02136 | 0.004486 | 0.1303 | 0.004867 | 0.1303 | 300 µM | – | –
2 | – | C[C@H](CCC(=O)O)[C@H]1CC[C@H]2[C@@H]3[C@H](O)C[C@@H]4C[C@H](O)CC[C@]4(C)[C@H]3C[C@H](O)[C@]12C [Cholic Acid, cholic acid] | – | – | – | – | – | – | – | 0.2007 | 300 µM | 0.15 and 0.2304 and 0.2216 | –
3 | – | C[C@H](CCC(=O)NCCS(=O)(=O)O)[C@H]1CC[C@H]2[C@@H]3[C@H](O)C[C@@H]4C[C@H](O)CC[C@]4(C)[C@H]3C[C@H](O)[C@]12C [Taurocholic Acid, taurocholic acid] | 0.002616 | 0.007681 | 0.00381 | 0.02945 | -0.001111 | 0.155 | 0.0008114 | 0.155 | 300 µM | – | 0.1385 and 0.1739 and 0.1528
